Assay [1] addresses T1, luciferase (Photinus pyralis, UniProt P08659). Put plainly: Luciferase assay for ATP in ADBAC extract of wastewater effluent (different date), 2 mL resin or two 1 mL portions. In kind it is biochemical, firefly. To be noted: no extract pre-treatment. The protocol: Further dilutions were made in a phosphate buffer. The chelating resin was IRC-748. The resin treatment consisted of mixing 2 mL of resin with 3 mL of extract, then allowing the resin beads to settle before ATP analysis. In a variation of this analysis, 3 mL of sample were treated with 1 mL of resin and the supernatant of this treatment was treated to a second 1 mL portion of resin prior to ATP analysis.

Assay [2] addresses T2, firefly luciferase (Photinus pyralis, UniProt P08659). Put plainly: Firefly luciferase assay of ATP standard solution containing ADBAC, with and without chelating resin pre-treatment. In kind it is biochemical. To be noted: phosphate buffer ATP solution containing 1000 mg/L ADBAC. Here is the method: The light produced in this reaction was measured in a luminometer (Kikkoman C-100 Lumitester). Several dilutions of this ATP solution were also prepared in phosphate buffer and tested. In addition, a 3 mL portion of this solution was mixed with 1 mL of a chelating resin (IRC748, Rohm and Haas Company) and similarly diluted in phosphate buffer, then assayed for ATP.

Assay [3] concerns the target T1, luciferase. In words: Luciferase activity in ATP standard spiked with ADBAC after treatment with various resins. In kind it is biochemical, firefly. The settings on record: 10 ng/mL ATP. The protocol: The experiment was conducted in the same format as described for the first experiment by testing an ATP standard solution spiked with ADBAC. The dilution required to remove inhibition following treatment with an ion-exchange resin was the same as the test condition in which no resin treatment was applied. In contrast, a ¼ fold dilution removed almost all of the inhibition in the solution that had been pre-treated with the chelating resin. Again, the luciferase activity in an undiluted solution treated with the chelating resin provided a response many times greater than untreated solution or solution treated with ion exchange resins.
It should be noted that Table 4 is constructed from results of 2 different experiments. In order to facilitate comparison, the results are expressed as enzyme activity instead of instrument reading. Luciferase activity was calculated by dividing the RLU of each test condition by the RLU of an uninhibited reaction and expressing the results as a percentage.

Assay [4] deals with T2, firefly luciferase. In words: Firefly luciferase assay for ATP in ADBAC extract of wastewater effluent, with and without chelating resin. In kind it is biochemical. The protocol:
The ATP released by this process was measured in a Kikkoman luminometer by mixing 100 microliters of the mixture and combining it with 100 microliters of a luciferase assay mixture. Several dilutions of this ATP extract were also prepared in phosphate buffer and tested. In addition, a 3 mL portion of the ATP extract was mixed with 1 mL of a chelating resin (IRC748, Rohm and Haas Company) and similarly diluted in phosphate buffer, then assayed for ATP.
Further dilutions were made in a phosphate buffer. The chelating resin was IRC-748. The resin treatment consisted of mixing 1 mL of resin with 3 mL of extract, then allowing the resin beads to settle before ATP analysis.

Assay [5] concerns the target T2, firefly luciferase. Put plainly: Combined treatment with soluble (β-cyclodextrin) and insoluble (IRC-748) neutralizers of ADBAC inhibition of firefly luciferase. In kind it is biochemical. To be noted: β-cyclodextrin 3,750 mg/L, resin 1 part per 3 parts. The protocol: Four dilution series were prepared from this stock solution. One series was diluted only in a phosphate buffer. Another identical series was prepared in the phosphate buffer but was pre-treated with IRC-748 chelating resin (3 parts solution treated with one part resin) prior to assaying for ATP. […] The fourth series was prepared in the same way as the third series, except that each member of the series was pre-treated with IRC-748 chelating resin (3 parts solution treated with one part resin) prior to assaying for ATP. All solutions were assayed for ATP by mixing 100 microliters of solution with 100 microliters of luciferase reagent and measuring the light produced in a Kikkoman luminometer.
The experiment described in Example 5 compares the ability of a soluble agent (β-cyclodextrin) and an insoluble agent (chelating resin, IRC-748) and their combination to neutralize the inhibition of the bioluminescent reaction catalyzed by firefly luciferase.
A concentrate of cyclodextrin was added to the ATP solutions in some of the tests to maintain concentration of 3,750 mg/L through the dilution series.

Consider two compounds from patent US7829280B2, “Process for reducing interferences in luciferase enzyme assays” (LuminUltra Technologies Ltd., priority 2007, dated 2010).

T2 sequence (P08659 whole entry): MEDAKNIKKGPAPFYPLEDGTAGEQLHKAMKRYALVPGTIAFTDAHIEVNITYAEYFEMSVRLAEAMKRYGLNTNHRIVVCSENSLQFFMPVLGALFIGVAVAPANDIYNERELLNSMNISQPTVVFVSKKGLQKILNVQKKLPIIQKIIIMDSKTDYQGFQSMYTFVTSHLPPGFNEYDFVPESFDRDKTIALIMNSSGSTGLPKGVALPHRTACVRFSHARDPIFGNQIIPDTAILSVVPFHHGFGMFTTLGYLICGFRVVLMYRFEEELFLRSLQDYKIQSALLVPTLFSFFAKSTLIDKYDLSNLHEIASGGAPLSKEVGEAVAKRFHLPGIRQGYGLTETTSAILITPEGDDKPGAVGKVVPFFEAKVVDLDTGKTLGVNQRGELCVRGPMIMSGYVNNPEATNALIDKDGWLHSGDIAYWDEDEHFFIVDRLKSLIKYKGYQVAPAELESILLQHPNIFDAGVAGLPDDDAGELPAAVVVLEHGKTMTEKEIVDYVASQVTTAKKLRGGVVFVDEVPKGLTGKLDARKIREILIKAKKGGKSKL
T1 sequence (P08659 whole entry): as above

For the compound “alkyl dimethybenzyl ammonium chloride [ADBAC]”, the RLU on luciferase [1] (dilution of ADBAC in ATP extract 1/16) is 3100 RLU; on luciferase [1] (dilution of ADBAC in ATP extract 1/32), 1551 RLU; on luciferase [1] (dilution of ADBAC in ATP extract ¼) it was 7,310 RLU; at luciferase [1] (dilution of ADBAC in ATP extract ½), 209 RLU; at luciferase [1] (dilution of ADBAC in ATP extract ⅛) it was 6064 RLU; at firefly luciferase [4] (dilution of ADBAC (1000 mg/L) in ATP extract 1/16, resin 1 mL per 3 mL extract), 4,628 RLU. The RLU on firefly luciferase [4] (dilution of ADBAC (1000 mg/L) in ATP extract 1/32, resin 1 mL per 3 mL extract) was 2,401 RLU; at firefly luciferase [4] (dilution of ADBAC (1000 mg/L) in ATP extract ¼, resin 1 mL per 3 mL extract) it was 4,658 RLU; at firefly luciferase [4] (dilution of ADBAC (1000 mg/L) in ATP extract ½, resin 1 mL per 3 mL extract), 1,489 RLU. Besides, the “dilution factor needed to overcome luciferase inhibition” value at firefly luciferase [2] is on record as 8. The “Luciferase Activity (% of activity in the absence of ADBAC)” value worked out at 100% on luciferase [3] (dilution 1/16, 1000 mg/L ADBAC stock in phosphate buffer); 0.01% on luciferase [3] (dilution None, 1000 mg/L ADBAC in phosphate buffer); 33% at luciferase [3] (dilution ¼, 1000 mg/L ADBAC stock in phosphate buffer); 6.7% on luciferase [3] (dilution ½, 1000 mg/L ADBAC stock in phosphate buffer); 100% at luciferase [3] (dilution ⅛, 1000 mg/L ADBAC stock in phosphate buffer).
For `OC[C@H]1O[C@@H]2O[C@H]3[C@H](O)[C@@H](O)[C@@H](O[C@H]4[C@H](O)[C@@H](O)[C@@H](O[C@H]5[C@H](O)[C@@H](O)[C@@H](O[C@H]6[C@H](O)[C@@H](O)[C@@H](O[C@H]7[C@H](O)[C@@H](O)[C@@H](O[C@H]8[C@H](O)[C@@H](O)[C@@H](O[C@H]1[C@H](O)[C@H]2O)O[C@@H]8CO)O[C@@H]7CO)O[C@@H]6CO)O[C@@H]5CO)O[C@@H]4CO)O[C@@H]3CO` [β-cyclodextrin], the RLU is 606 RLU on firefly luciferase [5] (dilution 1/16 of 7200 mg/L ADBAC, 1 ng ATP per mL stock); 96 RLU at firefly luciferase [5] (dilution ¼ of 7200 mg/L ADBAC, 1 ng ATP per mL stock); 3 RLU at firefly luciferase [5] (dilution ½ of 7200 mg/L ADBAC, 1 ng ATP per mL stock (3600 mg/L ADBAC, 0.5 ng/mL ATP)); 1227 RLU at firefly luciferase [5] (dilution ⅛ of 7200 mg/L ADBAC, 1 ng ATP per mL stock).
